Columns and labels:
[1] = target: T1, Bifunctional 3'-5' exonuclease/ATP-dependent helicase WRN [480-1251] (UniProt Q14191); assay: Biochemical Activity Assays
T1 construct: 480-1251

[2] = target: Bifunctional 3'-5' exonuclease/ATP-dependent helicase WRN (Homo sapiens, UniProt Q14191); assay: ADP-Glo Kinase Assay
Method: ATPase activity was measured using the ADP-Glo Kinase Assay following the manufacturers recommended protocol.

T1 sequence (Q14191 480-1251): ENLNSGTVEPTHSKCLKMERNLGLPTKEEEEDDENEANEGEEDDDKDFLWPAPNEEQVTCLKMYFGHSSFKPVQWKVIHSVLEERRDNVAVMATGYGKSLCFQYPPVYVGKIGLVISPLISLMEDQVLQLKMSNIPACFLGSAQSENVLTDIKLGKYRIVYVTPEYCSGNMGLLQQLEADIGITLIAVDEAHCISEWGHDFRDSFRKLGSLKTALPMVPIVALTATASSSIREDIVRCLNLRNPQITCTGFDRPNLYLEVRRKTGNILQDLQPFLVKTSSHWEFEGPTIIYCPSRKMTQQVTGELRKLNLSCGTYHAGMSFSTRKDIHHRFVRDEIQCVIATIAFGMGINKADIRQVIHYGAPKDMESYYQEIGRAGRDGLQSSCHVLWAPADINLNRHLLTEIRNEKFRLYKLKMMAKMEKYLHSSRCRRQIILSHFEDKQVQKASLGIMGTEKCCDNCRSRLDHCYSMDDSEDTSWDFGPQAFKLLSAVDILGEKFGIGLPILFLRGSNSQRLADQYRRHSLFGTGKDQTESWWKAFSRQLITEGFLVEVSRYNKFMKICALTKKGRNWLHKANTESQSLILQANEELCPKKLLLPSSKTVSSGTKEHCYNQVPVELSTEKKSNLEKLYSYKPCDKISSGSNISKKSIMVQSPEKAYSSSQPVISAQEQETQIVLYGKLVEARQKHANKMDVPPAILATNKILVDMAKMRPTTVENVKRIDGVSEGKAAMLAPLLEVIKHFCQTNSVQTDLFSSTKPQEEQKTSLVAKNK
Bifunctional 3'-5' exonuclease/ATP-dependent helicase WRN, sequence (Q14191 whole entry): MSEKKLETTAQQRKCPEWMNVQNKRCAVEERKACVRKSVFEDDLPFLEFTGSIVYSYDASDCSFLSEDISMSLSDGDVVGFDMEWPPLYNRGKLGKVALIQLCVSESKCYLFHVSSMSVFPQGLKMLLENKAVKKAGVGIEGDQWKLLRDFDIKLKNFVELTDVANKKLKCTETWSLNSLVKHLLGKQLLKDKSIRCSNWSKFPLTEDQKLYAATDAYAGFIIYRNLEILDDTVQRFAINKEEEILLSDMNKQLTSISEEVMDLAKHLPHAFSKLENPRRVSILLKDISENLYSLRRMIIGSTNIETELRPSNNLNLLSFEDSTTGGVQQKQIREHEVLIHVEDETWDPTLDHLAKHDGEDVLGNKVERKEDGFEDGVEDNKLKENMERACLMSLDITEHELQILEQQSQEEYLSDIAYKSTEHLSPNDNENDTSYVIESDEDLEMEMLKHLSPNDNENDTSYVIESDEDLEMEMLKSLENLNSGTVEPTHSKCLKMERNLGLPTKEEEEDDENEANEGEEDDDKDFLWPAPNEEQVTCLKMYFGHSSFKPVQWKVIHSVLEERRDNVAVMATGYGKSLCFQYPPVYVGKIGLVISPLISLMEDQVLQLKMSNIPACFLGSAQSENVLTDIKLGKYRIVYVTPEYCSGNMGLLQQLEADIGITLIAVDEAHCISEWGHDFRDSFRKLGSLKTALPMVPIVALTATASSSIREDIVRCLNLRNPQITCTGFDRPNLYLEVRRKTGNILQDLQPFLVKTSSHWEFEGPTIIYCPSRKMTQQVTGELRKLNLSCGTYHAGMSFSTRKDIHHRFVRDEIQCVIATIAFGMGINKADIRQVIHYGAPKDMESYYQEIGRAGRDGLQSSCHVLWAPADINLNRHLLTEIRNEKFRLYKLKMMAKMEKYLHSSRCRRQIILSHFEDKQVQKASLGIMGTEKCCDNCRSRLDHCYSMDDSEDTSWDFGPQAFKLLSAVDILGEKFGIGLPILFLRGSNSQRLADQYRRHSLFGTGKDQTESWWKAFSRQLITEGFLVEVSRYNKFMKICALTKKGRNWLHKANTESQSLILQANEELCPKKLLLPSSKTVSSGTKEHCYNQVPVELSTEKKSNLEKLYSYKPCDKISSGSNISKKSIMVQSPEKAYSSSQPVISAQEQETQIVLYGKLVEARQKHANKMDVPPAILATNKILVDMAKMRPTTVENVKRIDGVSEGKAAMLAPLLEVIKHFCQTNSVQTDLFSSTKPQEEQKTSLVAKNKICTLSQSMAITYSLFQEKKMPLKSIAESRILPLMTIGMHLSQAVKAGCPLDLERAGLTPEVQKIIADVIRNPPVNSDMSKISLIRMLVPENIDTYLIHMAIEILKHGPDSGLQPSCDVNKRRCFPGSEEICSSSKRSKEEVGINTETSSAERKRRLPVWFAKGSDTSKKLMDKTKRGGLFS

**Q.** For `CCc1c(N2CC[C@@H](C)N(C(=O)c3ncnc(C)c3O)CC2)c(=O)n2nc(C3=CCOCC3)nc2n1CC(=O)Nc1ccc(C(F)(F)F)cc1Cl` [WO2025049746, Example 341], which IC50 [1] is on record?
**A.** Its IC50 is 67 nM.

**Q.** What about the IC50 [2] of the same compound?
**A.** Its IC50 is 80 nM.

**Q.** Which results are given for `CCC1=C(N2CCN(C(=O)C3=C4NN=CC4CC=N3)CC2)C(=O)N2N=C(C3CCOCC3)NC2N1CC(=O)Nc1ccc(C(F)(F)F)cc1Cl` (centres undefined) [WO2025049746, Example 41]?
**A.** IC50 [1]: 56.9 nM; IC50 [2]: 83.9 nM

**Q.** With `CCc1c(N2CCN(C(=O)c3ncnc(C)c3O)CC2)c(=O)n2nc(-c3ccc4c(c3)C(F)(F)CC4)nc2n1CC(=O)Nc1ccc(C(F)(F)F)cc1Cl` [WO2025049746, Example 178] as the compound, how does the IC50 [1] read?
**A.** The IC50 was 39 nM.

**Q.** And the IC50 [2]?
**A.** The IC50 was 42 nM.

**Q.** Which results are given for `CCc1c(N2CCN(C(=O)c3ncnc(C)c3O)CC2)c(=O)n2nc(-c3ccc4nn(C5COC5)cc4c3)nc2n1CC(=O)Nc1ccc(C(F)(F)F)cc1Cl` [WO2025049746, Example 332]?
**A.** IC50 [1]: 45 nM; IC50 [2]: 44 nM

**Q.** How did the IC50 [1] turn out when `CCc1c(N2CCN(C(=O)c3ccccc3NC(=O)c3ccn[nH]3)CC2)c(=O)n2nc(C3=CCOCC3)nc2n1CC(=O)Nc1ccc(C(F)(F)F)cc1Cl` [WO2025049746, Example 40] was run?
**A.** The IC50 was 62.2 nM.

**Q.** What about the IC50 [2] of the same compound?
**A.** Its IC50 is 125 nM.

**Q.** Which IC50 [1] does the source give for `CCc1c(N2CCN(C(=O)c3c(C#N)cnc(C)c3O)CC2)c(=O)n2nc(-c3ccc4c(c3)COC4)nc2n1CC(=O)Nc1ccc(C(F)(F)F)cc1Cl` [WO2025049746, Example 449] here?
**A.** Its IC50 is 45 nM.

**Q.** And the IC50 [2]?
**A.** Its IC50 is 40 nM.

**Q.** With `CCc1c(N2CCN(C(=O)c3ncnc(C)c3O)CC2)c(=O)n2nc(-c3ccc4c(c3)CO[C@H]4C)nc2n1CC(=O)Nc1ccc(C(F)(F)F)cc1Cl` [WO2025049746, Example 192] as the compound, how does the IC50 [1] read?
**A.** The IC50 was 31 nM.

**Q.** What about the IC50 [2] of the same compound?
**A.** The IC50 was 40 nM.

**Q.** For `CCc1c(N2CCN(C(=O)c3ncnc(C)c3O)CC2)c(=O)n2nc(-c3ccc4n[nH]cc4c3)nc2n1CC(=O)Nc1ccc(C(F)(F)F)cc1Cl` [WO2025049746, Example 258], which IC50 [1] is on record?
**A.** Its IC50 is 15 nM.

**Q.** What about the IC50 [2] of the same compound?
**A.** Its IC50 is 16 nM.

**Q.** How did the IC50 [1] turn out when `CCc1c(N2CCN(C(=O)c3ncnc(C)c3O)CC2)c(=O)n2nc(-c3cc4c(cc3C)OCC4)nc2n1CC(=O)Nc1ccc(C(F)(F)F)cc1Cl` [WO2025049746, Example 174] was run?
**A.** The IC50 was 31 nM.

**Q.** What about the IC50 [2] of the same compound?
**A.** Its IC50 is 59 nM.

**Q.** Which results are given for `CCc1c(N2CCN(C(=O)c3ncnc(C)c3O)CC2)c(=O)n2nc(-c3ccn4nc(OC(F)F)cc4c3F)nc2n1CC(=O)Nc1ccc(C(F)(F)F)cc1Cl` [WO2025049746, Example 334]?
**A.** IC50 [1]: 32 nM; IC50 [2]: 30 nM

**Q.** Which IC50 [1] does the source give for `CCc1c(N2CCN(C(=O)c3ncnc(C)c3O)CC2)c(=O)n2nc(C3=CCOCC3)nc2n1CC(=O)NC12CCC(C(F)(F)F)(CC1)C2` [WO2025049746, Example 362] here?
**A.** Its IC50 is 615 nM.

**Q.** And the IC50 [2]?
**A.** Its IC50 is 1650 nM.

**Q.** Which results are given for `CCc1c(N2CCN(C(=O)c3ncnc(C)c3O)CC2)c(=O)n2nc(-c3cnc4ccn(C)c4c3)nc2n1CC(=O)Nc1ccc(C(F)(F)F)cc1Cl` [WO2025049746, Example 304]?
**A.** IC50 [1]: 29 nM; IC50 [2]: 32 nM

**Q.** What does the source list for `CCc1c(N2CCN(C(=O)c3ncnc(C)c3O)CC2)c(=O)n2nc(-c3ccc4c(c3)C(C)(C)OC4)nc2n1CC(=O)Nc1ccc(C(F)(F)F)cc1Cl` [WO2025049746, Example 165]?
**A.** IC50 [1]: 42 nM; IC50 [2]: 53 nM

**Q.** Which IC50 [1] does the source give for `CCc1c(N2CCN(C(=O)c3nc4n(c(=O)c3OCc3ccccc3)CCOC4)CC2)c(=O)n2nc(N(C)C)nc2n1CC(=O)Nc1ccc(C(F)(F)F)cc1Cl` [WO2025049746, Example 84] here?
**A.** The IC50 was 38.4 nM.

**Q.** And the IC50 [2]?
**A.** Its IC50 is 40.7 nM.

**Q.** Which IC50 [1] does the source give for `CCc1c(N2CCN(C(=O)c3nccc(C)c3N)CC2)c(=O)n2nc(C3=CCOCC3)nc2n1CC(=O)Nc1ccc(C(F)(F)F)cc1Cl` [WO2025049746, Example 36] here?
**A.** The IC50 was 38.3 nM.

**Q.** What about the IC50 [2] of the same compound?
**A.** Its IC50 is 42.9 nM.

**Q.** With `CCc1c(N2CCN(C(=O)c3ncnc(C)c3O)CC2)c(=O)n2nc(-c3ccc4c(c3F)COC4(C)C)nc2n1CC(=O)Nc1ccc(C(F)(F)F)cc1Cl` [WO2025049746, Example 216] as the compound, how does the IC50 [1] read?
**A.** Its IC50 is 37 nM.

**Q.** What about the IC50 [2] of the same compound?
**A.** The IC50 was 37 nM.

**Q.** For `CCc1c(N2CCN(C(=O)c3ncnc(C)c3O)CC2)c(=O)n2nc(-c3ccc4c(c3)OCCN4)nc2n1CC(=O)Nc1ccc(C(F)(F)F)cc1Cl` [WO2025049746, Example 281], which IC50 [1] is on record?
**A.** The IC50 was 31 nM.

**Q.** And the IC50 [2]?
**A.** Its IC50 is 27 nM.

**Q.** Which IC50 [1] does the source give for `CCc1c(N2CCN(C(=O)c3cc(C(C)C)c(O)cc3O)CC2)c(=O)n2nc(-c3ccc4c(c3)COC4)nc2n1CC(=O)Nc1ccc(C(F)(F)F)cc1Cl` [WO2025049746, Example 408] here?
**A.** The IC50 was 1200 nM.

**Q.** And the IC50 [2]?
**A.** Its IC50 is 1260 nM.

**Q.** `CCc1c(N2CCN(C(=O)c3cccc4c3nnn4C)CC2)c(=O)n2nc(C3=CCOCC3)nc2n1CC(=O)Nc1ccc(C(F)(F)F)cc1Cl` [WO2025049746, Example 49] was tested. Which IC50 [1] did it give?
**A.** The IC50 was 46.7 nM.

**Q.** What about the IC50 [2] of the same compound?
**A.** The IC50 was 130 nM.

**Q.** Which IC50 [1] does the source give for `CCc1c(N2CCN(C(=O)c3ncnc(C)c3O)CC2)c(=O)n2nc(-c3cccc4c3OCCC4)nc2n1CC(=O)Nc1ccc(C(F)(F)F)cc1Cl` [WO2025049746, Example 160] here?
**A.** Its IC50 is 34 nM.

**Q.** What about the IC50 [2] of the same compound?
**A.** The IC50 was 51 nM.

**Q.** Which results are given for `CCc1c(N2CCN(C(=O)c3ccccc3NS(C)(=O)=O)CC2)c(=O)n2nc(C3=CCOCC3)nc2n1CC(=O)Nc1ccc(C(F)(F)F)cc1Cl` [WO2025049746, Example 38]?
**A.** IC50 [1]: 60.3 nM; IC50 [2]: 70.8 nM

**Q.** With `CCc1c(N2CCN(C(=O)c3ncnc(C)c3O)CC2)c(=O)n2nc(-c3ccc4c(c3)COC43CCOCC3)nc2n1CC(=O)Nc1ccc(C(F)(F)F)cc1Cl` [WO2025049746, Example 289] as the compound, how does the IC50 [1] read?
**A.** Its IC50 is 56 nM.

**Q.** And the IC50 [2]?
**A.** Its IC50 is 53 nM.

**Q.** With `CCc1c(N2CCN(C(=O)c3ncnc(C)c3O)CC2)c(=O)n2nc(C3=CCOCC3)nc2n1CC(=O)Nc1ccc(SC(F)(F)F)cc1` [WO2025049746, Example 356] as the compound, how does the IC50 [1] read?
**A.** The IC50 was 634 nM.

**Q.** What about the IC50 [2] of the same compound?
**A.** Its IC50 is 875 nM.

**Q.** How did the IC50 [1] turn out when `CCc1c(N2CCN(C(=O)c3ncnc(C)c3O)CC2)c(=O)n2nc(-c3ccc4c(c3)CC(=O)N4C)nc2n1CC(=O)Nc1ccc(C(F)(F)F)cc1Cl` [WO2025049746, Example 271] was run?
**A.** The IC50 was 35 nM.

**Q.** And the IC50 [2]?
**A.** Its IC50 is 28 nM.

**Q.** For `CCc1c(N2CCN(C(=O)c3ncnc(C)c3O)CC2)c(=O)n2nc(-c3ccn4nccc4c3)nc2n1CC(=O)Nc1ccc(C(F)(F)F)cc1Cl` [WO2025049746, Example 176], which IC50 [1] is on record?
**A.** Its IC50 is 76 nM.

**Q.** What about the IC50 [2] of the same compound?
**A.** The IC50 was 95 nM.

**Q.** `CCc1c(N2CCN(C(=O)c3nc4c(cc3O)OCC4)CC2)c(=O)n2nc(-c3ccc4c(c3)COC4)nc2n1CC(=O)Nc1ccc(C(F)(F)F)cc1Cl` [WO2025049746, Example 435] was tested. Which IC50 [1] did it give?
**A.** The IC50 was 50 nM.

**Q.** What about the IC50 [2] of the same compound?
**A.** The IC50 was 61 nM.

**Q.** What does the source list for `CCc1c(N2CCN(C(=O)c3ncnc(C)c3O)CC2)c(=O)n2nc(-c3cc4c(cc3F)OCC4)nc2n1CC(=O)Nc1ccc(C(F)(F)F)cc1Cl` [WO2025049746, Example 169]?
**A.** IC50 [1]: 25 nM; IC50 [2]: 26 nM

**Q.** For `CCc1c(N2CCN(C(=O)c3ncnc(C)c3O)CC2)c(=O)n2nc(N(C)C)nc2n1CC(=O)Nc1ccc(SC(F)(F)F)cc1` [WO2025049746, Example 392], which IC50 [1] is on record?
**A.** The IC50 was 396 nM.

**Q.** What about the IC50 [2] of the same compound?
**A.** Its IC50 is 468 nM.

**Q.** With `CCc1c(N2CCN(C(=O)c3ncnc(C)c3O)CC2)c(=O)n2nc(-c3cccc4c3OCCO4)nc2n1CC(=O)Nc1ccc(SC(F)(F)F)cc1Cl` [WO2025049746, Example 399] as the compound, how does the IC50 [1] read?
**A.** The IC50 was 115 nM.

**Q.** What about the IC50 [2] of the same compound?
**A.** Its IC50 is 142 nM.

**Q.** `CCc1c(N2CCN(C(=O)c3ncnc(C)c3O)CC2)c(=O)n2nc(-c3ccc4c(cnn4CC(F)F)c3)nc2n1CC(=O)Nc1ccc(C(F)(F)F)cc1Cl` [WO2025049746, Example 293] was tested. Which IC50 [1] did it give?
**A.** Its IC50 is 34 nM.

**Q.** What about the IC50 [2] of the same compound?
**A.** The IC50 was 33 nM.

**Q.** Which IC50 [1] does the source give for `CCc1c(N2CCN(C(=O)c3ncnc(C)c3O)CC2)c(=O)n2nc(-c3ccc4c(c3)n(C)c(=O)n4C)nc2n1CC(=O)Nc1ccc(C(F)(F)F)cc1Cl` [WO2025049746, Example 175] here?
**A.** Its IC50 is 30 nM.

**Q.** And the IC50 [2]?
**A.** The IC50 was 52 nM.

**Q.** For `CCc1c(N2CCN(C(=O)c3ncnc(C)c3O)CC2)c(=O)n2nc(-c3ccc4c(c3)CCOC4)nc2n1CC(=O)Nc1ccc(C(F)(F)F)cc1Cl` [WO2025049746, Example 3], which IC50 [1] is on record?
**A.** The IC50 was 34.4 nM.

**Q.** What about the IC50 [2] of the same compound?
**A.** Its IC50 is 41.2 nM.

Reference: BindingDB's records for patent WO2025049746 (Eikon Therapeutics, 2025)
